From ChEMBL document CHEMBL4390710, “Synthesis and biological evaluation of novel 4,7-dihydroxycoumarin derivatives as anticancer agents” (Bioorg Med Chem Lett, 2019)

Columns and labels:
[1] = test system: SK-N-SH; assay: Cytotoxicity against human SK-N-SH cells measured after 24 hrs by MTT assay; assay type: functional, cell-based
[2] = test system: NRK-49F; assay: Cytotoxicity against rat NRK-49F cells measured after 24 hrs by MTT assay; assay type: functional, cell-based
[3] = test system: HeLa; assay: Cytotoxicity against human HeLa cells measured after 24 hrs by MTT assay; assay type: functional, cell-based; parameters: unit not given here
[4] = test system: MCF7; assay: Cytotoxicity against human MCF7 cells measured after 24 hrs by MTT assay; assay type: functional, cell-based
[5] = test system: A549; assay: Cytotoxicity against human A549 cells measured after 24 hrs by MTT assay; assay type: functional, cell-based
[6] = test system: MCF7; assay: Cell cycle arrest in human MCF7 cells assessed as accumulation at S-phase at 4 uM measured after 24 hrs by propidium iodide staining based flow cytometry (reference value: 14.9%); assay type: functional
[7] = test system: MCF7; assay: Cell cycle arrest in human MCF7 cells assessed as accumulation at G2/M-phase at 4 uM measured after 24 hrs by propidium iodide staining based flow cytometry (reference value: 13.8%); assay type: functional
[8] = Inhibition of goat brain tubulin polymerization; parameters: species or system Capra hircus
[9] = test system: MCF7; assay: Cell cycle arrest in human MCF7 cells assessed as accumulation at G2/M-phase at 4 uM measured after 24 hrs by propidium iodide staining based flow cytometry relative to control; assay type: functional
[10] = test system: MCF7; assay: Cell cycle arrest in human MCF7 cells assessed as accumulation at subG0-phase at 4 uM measured after 24 hrs by propidium iodide staining based flow cytometry (reference value: 13.9%); assay type: functional
[11] = test system: MCF7; assay: Cell cycle arrest in human MCF7 cells assessed as accumulation at G1-phase at 4 uM measured after 24 hrs by propidium iodide staining based flow cytometry (reference value: 57%); assay type: functional

SMILES | IC50 [1] | IC50 [2] | IC50 [3] | IC50 [4] | IC50 [5] | Activity [6] | Activity [7] | IC50 [8] | fold change (FC) [9] | Activity [10] | Activity [11]
C/C(=N\NC(=O)/C(C#N)=C/c1ccccc1)c1c(O)c2ccc(O)cc2oc1=O | 13.52 µmol | 55.45 µmol | 15.75 | 19.22 µmol | 14.82 µmol |  |  |  |  |  | 
C/C(=N\NC(=O)/C(C#N)=C/c1ccccc1[N+](=O)[O-])c1c(O)c2ccc(O)cc2oc1=O | 12.26 µmol | 68.59 µmol | 10.31 | 9.18 µmol | 11.35 µmol |  |  |  |  |  | 
COc1cccc2c1C(=O)c1c(O)c3c(c(O)c1C2=O)C[C@@](O)(C(=O)CO)C[C@@H]3O[C@H]1C[C@H](N)[C@H](O)[C@H](C)O1 [DOXORUBICIN] | 6.42 µmol | 24.22 µmol |  | 9.86 µmol | 6.22 µmol |  |  |  |  |  | 
COc1ccc(/C=C(\C#N)C(=O)N/N=C(\C)c2c(O)c3ccc(O)cc3oc2=O)cc1OC | 21.53 µmol | 45.28 µmol | 13.52 | 14.35 µmol | 14.32 µmol |  |  |  |  |  | 
C/C(=N\NC(=O)/C(C#N)=C/c1ccc(N(C)C)cc1)c1c(O)c2ccc(O)cc2oc1=O | 6.09 µmol | 53.41 µmol | 5.14 | 3.42 µmol | 4.31 µmol | 22.6% | 45.3% | 6.19 µM | 4 | 8.5 - 10.6% | 22.7 - 22.8%
COC(=O)Nc1nc2cc(C(=O)c3cccs3)ccc2[nH]1 [NOCODAZOLE] |  |  |  |  |  | 22% | 39.3% |  |  | 16.4 - 16.8% | 21.6%
C/C(=N\NC(=O)/C(C#N)=C/c1ccc(Br)cc1)c1c(O)c2ccc(O)cc2oc1=O | 12.05 µmol | 49.64 µmol | 10.56 | 9.85 µmol | 11.43 µmol |  |  |  |  |  | 
C/C(=N\NC(=O)/C(C#N)=C/c1ccc([N+](=O)[O-])cc1)c1c(O)c2ccc(O)cc2oc1=O | 10.26 µmol | 43.22 µmol | 8.36 | 8.2 µmol | 9.64 µmol |  |  |  |  |  | 
C/C(=N\NC(=O)/C(C#N)=C/c1ccc(O)cc1)c1c(O)c2ccc(O)cc2oc1=O | 8.12 µmol | 61.31 µmol | 6.02 | 7.32 µmol | 6.23 µmol |  |  |  |  |  | 
C/C(=N\NC(=O)/C(C#N)=C/c1ccccc1Cl)c1c(O)c2ccc(O)cc2oc1=O | 14.02 µmol | 55.89 µmol | 11.78 | 8.88 µmol | 14.23 µmol |  |  |  |  |  | 
COc1cc(/C=C(\C#N)C(=O)N/N=C(\C)c2c(O)c3ccc(O)cc3oc2=O)ccc1O | 14.35 µmol | 55.42 µmol | 10.46 | 13.65 µmol | 12.63 µmol |  |  |  |  |  | 
COc1cc(/C=C(\C#N)C(=O)N/N=C(\C)c2c(O)c3ccc(O)cc3oc2=O)cc(OC)c1OC | 14.61 µmol | 55.34 µmol | 18.46 | 11.34 µmol | 15.32 µmol |  |  |  |  |  | 
C/C(=N\NC(=O)/C(C#N)=C/c1cccc(Br)c1)c1c(O)c2ccc(O)cc2oc1=O | 31.28 µmol | 59.39 µmol | 24.28 | 19.64 µmol | 22.15 µmol |  |  |  |  |  | 
COc1ccc(/C=C(\C#N)C(=O)N/N=C(\C)c2c(O)c3ccc(O)cc3oc2=O)cc1 | 9.46 µmol | 96.1 µmol | 7.85 | 8.94 µmol | 8.15 µmol |  |  |  |  |  | 
C/C(=N\NC(=O)/C(C#N)=C/c1cccc([N+](=O)[O-])c1)c1c(O)c2ccc(O)cc2oc1=O | 28.26 µmol | 46.53 µmol | 24.64 | 16.35 µmol | 21.9 µmol |  |  |  |  |  | 
